We go through one molecule from patent US20240308991A1, “PROCESS FOR THE SYNTHESIS OF REACTIVE CAR[…] ANTIGEN […] C[…] A CARRIER MATERIAL” (KORANEX CAPITAL, priority 2021, published 2024).

As a reminder, the melting point is the temperature of the solid-liquid transition. In turn, `C=CCO[C@H]1O[C@H](CO)[C@H](O)[C@H](O[C@@H]2O[C@H](CO)[C@H](O)[C@H](O)[C@H]2O)[C@H]1NC(C)=O` displayed a melting point of 230 to 232 °C.
